Among the test systems are HCC 2998; U-251; OVCAR-4; PC-3; OVCAR-3; A549; UACC-257; EKVX; NCI/ADR-RES; HOP-62; A498; SK-MEL-5; OVCAR-8; RXF 393; TK-10; UO-31; HCT-15; M14; K562; SR.
What all share (test): DTP human tumour cell line panel, 48 h

SMILES strings stand for the structures.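 Results reflect a 48-hour exposure of cells in 96-well plates to compound at five concentrations. Abbreviation: GI50, concentration required for 50% inhibition of growth.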 Calls of active or inactive are those of the source. Rule as the data show it: active = GI50 up to about 1.1 µM and inactive = higher. Residues, ends and D or L forms follow the SMILES beside them. *: point of attachment. Cbz = O=C(OCc1ccccc1)*

`COC(=O)c1ccc2c(c1)S/C(=C/c1ccc3ccc4cccc5ccc1c3c45)S2`: the GI50 (in general, the concentration at which growth is held to half of that of the control) in the assay on HCC 2998 was 89.3 µM (inactive); in the assay with U-251 it was 48.8 µM (inactive); in the assay on OVCAR-4 it was 41.4 µM (inactive); with PC-3, 48.1 µM (inactive); in the assay with OVCAR-3 it was 23.2 µM (inactive); in the assay on A549 it was 42 µM (inactive). The GI50 in the assay with UACC-257 was > 100 µM (inactive); in the assay on EKVX, > 100 µM (inactive); in the assay with NCI/ADR-RES, 23.7 µM (inactive); in the assay with HOP-62 it was 37.1 µM (inactive); with A498 it was 31.6 µM (inactive); in the assay on SK-MEL-5, > 100 µM (inactive). The GI50 in the assay with OVCAR-8 is 31.6 µM (inactive); in the assay with RXF 393, 50.4 µM (inactive); with TK-10, 98.4 µM (inactive); in the assay on UO-31, > 100 µM (inactive); with HCT-15, 28.1 µM; in the assay on M14, 32.1 µM (inactive). In the assay with K562, the GI50 was 34.3 µM (inactive).

For `CCN(CC)CCNc1c(OC)cc(C)c2sc3ccccc3c(=O)c12`, the GI50 was 4.34 µM (inactive) with U-251; 5.3 µM (inactive) with OVCAR-4; 7.71 µM (inactive) with PC-3; 11.8 µM (inactive) with OVCAR-3; 4.31 µM (inactive) in the assay with A549; 1.82 µM (inactive) with UACC-257. The GI50 in the assay with SR is 3.15 µM (inactive); with EKVX, 16.8 µM (inactive); in the assay on NCI/ADR-RES, 5.27 µM (inactive); in the assay on HOP-62, 10.8 µM (inactive); in the assay on SK-MEL-5, 1.91 µM (inactive); with OVCAR-8, 7.82 µM (inactive). In addition, the GI50 with RXF 393 is 10.1 µM (inactive); in the assay on TK-10, 8.59 µM (inactive); in the assay with UO-31 it was 6.32 µM (inactive); in the assay on HCT-15, 4.06 µM; with M14, 3.71 µM (inactive); in the assay with K562, 1.71 µM (inactive).

With `CC(=O)O[C@H]1CCC2[C@@H]3CC[C@]4(C)CC(=O)C=C[C@]4(C)C3CC[C@@]21C` (some centres undefined), the GI50 with HCC 2998 is 45.6 µM (inactive); with U-251, 17.7 µM (inactive); in the assay on OVCAR-4, 16.9 µM (inactive); in the assay on PC-3 it was 29.4 µM (inactive); in the assay on OVCAR-3 it was 17.5 µM (inactive); in the assay with A549, 18.3 µM (inactive). Further, the GI50 was 20.6 µM (inactive) in the assay with UACC-257; 27.5 µM (inactive) in the assay with EKVX; 22 µM (inactive) with NCI/ADR-RES; 50.6 µM (inactive) with HOP-62; 44.7 µM (inactive) in the assay with A498; 14.8 µM (inactive) in the assay on SK-MEL-5. In addition, the GI50 with OVCAR-8 is 17.3 µM (inactive); with RXF 393, 24.2 µM (inactive); with TK-10 it was 54.7 µM (inactive); in the assay on UO-31 it was 6.3 µM (inactive); with HCT-15, 18.7 µM; in the assay with M14, 19.2 µM (inactive). The GI50 in the assay on K562 is 20.2 µM (inactive).

Turning to `CC(NC(=O)C(NC(=O)OCc1ccccc1)C(C)C)C(=O)NCC(=O)O` (stereo not drawn) (Cbz-Val-Ala-Gly-OH; configuration not given here), the GI50 in the assay on HCC 2998, in the assay with U-251, with PC-3, in the assay on OVCAR-3, with A549 and in the assay with UACC-257 was > 100 µM (inactive) throughout. Further, the GI50 with SR, with EKVX, with NCI/ADR-RES, with HOP-62, in the assay on SK-MEL-5 and in the assay with OVCAR-8 was > 100 µM (inactive) in each case. Besides, the GI50 with RXF 393 was > 100 µM (inactive); with TK-10, > 100 µM (inactive); with UO-31, > 100 µM (inactive); in the assay with HCT-15, greater than 100 µM; in the assay with M14, > 100 µM (inactive); in the assay on K562, > 100 µM (inactive).

The values above are taken from ChEMBL document CHEMBL1201862, “PubChem BioAssay data set” (2004).
